Reference: ChEMBL document CHEMBL1147657, “Indanesulfonamides as carbonic anhydrase inhibitors. Toward structure-based design of selective inhibitors of the tumor-associated isozyme CA IX” (J Med Chem, 2006)

Target: Carbonic anhydrase 9 (Homo sapiens, UniProt Q16790)

Row | SMILES | Ki
1 | NS(=O)(=O)c1ccc2c(c1)CC(NC(=O)c1c(F)c(F)c(F)c(F)c1F)C2 (configuration not stated) | 33 nM
2 | CCCCCCCCCC(=O)NC1Cc2ccc(S(N)(=O)=O)cc2C1 (configuration not stated) | 3.7 nM
